Source: patent publication US20090062400A1 (priority 2007, published 2009)

What was measured:
[1] = rats
Experimental: Rats were sacrificed 2-3 hours after last administration. According to preliminary experiment, in order to obtain enough substance for MAO and protein analysis, 4 retinas (from 2 rats) were combined into one sample, (3 retina samples for MAO per each dose groups). The 6 brains and 6 livers were analyzed separately.

[2] = tested on: retinal ganglion cells (RGCs); conditions: Lewis rats, subcutaneous injection, single or repeated (treatment and prevention protocols)
retinal ganglion cells [3] = conditions: rats, rasagiline in the drinking water
Source text: Chronic, moderately elevated IOP is produced unilaterally by cautery of three episcleral vessels; the contralateral eye served as the control. To perform the cautery, sutures are placed in the lids to keep the eye open and in the bulbar conjunctiva to manipulate the globe. Three of the four to five major trunks formed by limbal-derived veins are exposed at the equator of the eye by incising the conjunctiva. Each vessel is lifted with a small muscle hook and cauterized by direct application of an ophthalmic, disposable cautery against the muscle hook. Immediate retraction and absence of bleeding of the cauterized ends of the vessels are noted as successful cauterization. After surgery, eyes are treated topically with bacitracin-neomycin-polymyxin for a few days during recovery.
One group is treated with rasagiline, in the drinking water, for a period of time. Another group is not treated with rasagiline, but receives drinking water on the same schedule. Once a month, each animal is anesthetized and IOP is determined bilaterally. The animals are awake within 15 minutes of the IOP measurement. On any given eye, three to five tonometer readings are taken and averaged. […]
Labeled retinal ganglion cells are counted using fluorescence microscopy in 12 fields of the retina.

retinal ganglion cells [4] = conditions: adult rats, rasagiline before intravitreal SSP
Experimental: The effect of rasagiline on RGC survival is tested in a rat model of RGC survival.
In this well-established model it is used to induce apoptosis of retinal ganglion cells.
Adult rats are used in all rat experiments.
Rats receive a dose of intravitreal SSP in PBS. Animals are imaged immediately and up to 6 h, after which they are sacrificed for histology.
To examine the effect of rasagiline on the survival of RGCs, one group of rats are treated with rasagiline for a period of time before SSP. A further group of naïve rats receives no rasagiline.
The animal is positioned before the cLSO so that the interior of the eye is imaged. An Argon laser wavelength of 488 nm is focused into a small spot and scanned across the retina by a pair of mirrors to excite the administered annexin 5-bound fluorophore. The fluorescence is detected by a solid-state photodetector.
For imaging, animals are held in a stereotaxic frame and their pupils dilated. Videos of scanned retinal areas are assessed for fluorescence. All animals have baseline images recorded before receiving intravitreal injections of Alexa Fluor 488-labeled annexin-5. […]
Fluorescent retinas are assessed by using a confocal laser scanning microscope.
The number of stained RGC and annexin 5-labeled apoptotic RGCs are counted with microscopy analysis software.

retinal ganglion cells [5] = conditions: Wistar rats, 0.5 and 3 mg/kg IP once daily, 6 weeks
Experimental: Male Wistar rats weighing 375-400 gm are treated under procedures approved and monitored by the Animal Care Committee of the Tel-Aviv University School of Medicine and following the procedures outlined in the Association for Research in Vision and Opthalmology Statement for the use of animals in ophthalmic and vision research. Animals are housed with a 14 hour light/10 hour dark cycle with standard chow and water ad libitum.
Glaucoma is induced in one eye of rats by using the translimbal laser photocoagulation model developed by Levkovitch-Verbin. This model can produce elevated IOP and typical glaucomatous optic nerve damage in most treated eyes.
In this model, the outflow channels of the rat eye are treated by argon laser at 532 nm. […] IOP is measured with Tonopen XL under the above anaesthesia in both eyes before and immediately after laser treatment and weekly thereafter. Each time ten measurements are obtained on each eye and the mean value is calculated. […]
The volume of administration is 2 ml/kg. […] (calculated for a rat weighing 400 g). […]
Thirty-two (32) images of ×40 magnification from each retina (both eyes for each rat) are photographed using a fluorescent microscope, and the number of surviving retinal ganglion cells are counted for each eye. The number of RGCs in the experimental eye are compared to the fellow control eye to calculated the RGC loss. […]

[6] = tested on: retinal ganglion cells (RGCs); conditions: Long Evans rats, IP 30 minutes before and 2 hours after ischemia, then once daily
Experimental: Thirty (30) male pigmented rats (Long Evans) are obtained and divided evenly into 3 groups, (2 test groups and 1 control group) 10 animals in each group. Retinal ischemia is induced by a 100/200-mmHg hyperpressure saline column applied to the eye through a needle for 60 minutes.
For the control group, the vehicle (saline solution) is administered IP 30 minutes before ischemia and 2 hours after ischemia.
Electroretinographic (ERG) measurements of a- and b-wave implicit times and peak amplitudes under scotopic conditions at maximal intensity are taken at baseline (just before ischemia), and 4-7 days after reperfusion.
Sampling of fixed flatmount retinas and histological processing for annexin-5 labeling or TUNEL labeling.

[7] = patients with glaucomatous optic neuropathy, vs placebo
[8] = rasagiline alone; cited from earlier work
[9] = double-blind, placebo-controlled trial; cited from earlier work
[10] = retinal degeneration slow mouse; cited from earlier work

Q: Which results are given for `C#CCN[C@@H]1CCc2ccccc21` [Rasagiline, R(+)—N-propargyl-1-aminoindan]?
A: irritation to the eye ([1]; preliminary test performed for 2 days, eye drops): did not cause irritation to the eye; absorption after intraocular administration ([1]; eye drops 0.0165-7.9 mg/kg/day, 10 days): absorbed in all doses; effect in the IOP model (RGC survival) [2]: positive effect; effect in the chronic, moderately elevated IOP model (RGC survival) (retinal ganglion cells [3]): positive effect; effect in the SSP model (RGC apoptosis) (retinal ganglion cells [4]): positive effect; effect in the experimental glaucoma model (retinal ganglion cells [5]): positive effect; ganglion survival in the treated group (retinal ganglion cells [5]): More ganglion survival; recovery of the retinal electric activity and/or number of apoptotic RGCs after transient ischemia [6]: positive effect; atrophy of the optic nerve [7]: reduced atrophy; preservation of the retina and of the structural integrity of the optic nerve [7]: increased preservation; protection against loss of RGCs [7]: increased protection; visual field loss [7]: reduced visual field loss; effectiveness in the ALS mouse model [8]: effective treatment

Q: Which “effectiveness in treating ALS” value [9] does the source give for `C#CCN(C)[C@H](C)Cc1ccccc1` [Selegiline] here?
A: ineffective

Q: Which “effect on retinal degeneration” value [10] does the source give for `C[C@]12C=CC(=O)C=C1CC[C@@H]1[C@@H]2[C@@H](O)C[C@@]2(C)[C@H]1CC[C@]2(O)C(=O)CO` [prednisolone] here?
A: unsuccessful
